“Also recorded” adds a separate entry of the source.

For one experiment, the system named is 3NA12 cells. Briefly: Calcium imaging (Fura-2) of odorant responses in clone 3NA12. The format is cell-based, mouse. The following applies: 10 μM single odorant; for Cells responding to each odorant: 1256 cells; for Cells responding to the odorant (increase in intracellular calcium concentration): total of 1256 cells in nineteen experiments, permissive conditions. The method, then:
Prior to experiments (2-4 days), cells were plated onto glass coverslips and incubated in permissive conditions. To prepare for stimulation, cells were loaded with Fura-2 ([…]) for 30 minutes at 33° C., washed, and allowed to equilibrate for a further 30 minutes at room temperature. At the beginning of the experiment, cells were washed (W) to determine whether the mechanical disturbance associated with changing solution affected intracellular calcium concentrations.
To determine whether cells from the 3NA12 clone were capable of functional responses to odorants, single odorants were applied to cells loaded with Fura-2. […] Since the onset of odorant receptor expression is at c. E13 in the rat (Strotmann et al., 1995), and each of the components of the signal transduction pathway is present in cells cultured in permissive conditions, cells at permissive conditions were chosen for all subsequent experiments.
Cloned olfactory receptor neurons were plated onto glass coverslips up to one week before imaging. On the day of analysis, the culture medium was removed and replaced with MDV containing 2 μM Fura-2-AM (Molecular Probes, Eugene, Oreg.) and 0.2% Pluronic F-127 (Sigma) dissolved in DMSO. Cells were incubated at appropriate culture temperatures (33° C. or 37° C.) for at least 30 minutes, rinsed and allowed to equilibrate in medium for 30 minutes prior to experiments. Additionally, to ensure that a response could not be induced mechanically, each experiment was started by washing the cells with bath solution in the same manner used in odorant application. For solution exchange, 5 ml of bath solution or odorant test solution was pipeffed manually into the bath (volume, 300 μl) fitted with a continual suction pump. This ensured complete replacement of the bath solution with the incoming solution without altering bath volume. Single odorants were applied to the cloned cell line 3NA12 and mixtures of odorants were applied to primary cultures of mouse olfactory bulb neurons and rat ORNs. […] When single odorants were used, they were taken from Mixture 2. Stock solutions of odorants (20 mM in DMSO) were made up every second day and diluted 1:2000 in bath solution (final concentration, 10 μM each) within seconds of application. The bath solution contained 140 mM NaCl, 5 mM KCl, 2 mM CaCl2, 10 mM HEPES and 10 mM glucose at pH 7.4. Calcium imaging was performed as described previously (Krautwurst et al., 1998; Grynkiewicz et al., 1985), in which ratiometric measurements were obtained using the Zeiss/Attofluor-Ratiovision imaging system on a Zeiss Axiovert 135 microscope fitted with an F Fluor 20×/1.30 lens. Cells were illuminated at 340 nm and 380 nm and the emission at 510 nm was monitored using an intensified CCD camera. The Attofluor-Ratiovision software was used to derive the Ca^2+-dependent ratio. Solutions of CaCl2 (1 mM) and EDTA (1 mM) containing Fura-2 pentasodium salt ([…], Molecular Probes) were used to provide a two-point calibration of the experimental set-up as directed by the instrument manufacturer (Atto Instruments, Rockville, Md.).

Experiment [1] relates to NST+ cells in the heterogeneous culture. Nature of the experiment: Counting NST+ cells (anti-NST labeling) in heterogeneous olfactory cell cultures with growth factors. The format is cell-based, mouse. The following applies: for Effect on the number of NST+ cells (in words): permissive conditions (33° C.). Here is the method: FIG. 2A. Interferon causes a significant, dose-dependent increase in the number of NST+ cells in the heterogeneous culture, with an EC50 of 0.4 U.ml^−1. Cells were incubated at 33° C. and were stained with anti-NST and rhodamine-coupled secondary antibodies seven days after plating. Cell counts were obtained from ten randomly selected areas in each experiment. Data were normalized to the mean number of NST+ cells in the absence of interferon and each point represents the mean ±S.E.M from three experiments.
FIG. 2B. EGF (•) and NGF (□) both have mitogenic effects in permissive conditions over and above the effect of interferon. NST+ cells were counted as described in (A) and were normalized to baseline levels in the presence of interferon (40 U.ml^−1). […] Except for the presence of interferon (40 U.ml^−1), all experimental conditions were as in A.
To determine the optimal conditions for cell survival, growth, differentiation and maturation, cells were cultured in permissive and non-permissive conditions in the presence of interferon, EGF, NGF, BDNF and NT-3. […] The effects of EGF, NGF, BDNF and NT-3 on cell maturation in non-permissive culture conditions were
To keep the amount of expressed TAg to the minimum required for immortalization (Noble et al., 1995), heterozygous offspring from homozygous male H-2K^b-tsA58 transgenic and C57B1 female mice (Charles River Laboratories, Wilmington Mass., and Jackson Laboratory, Bar Harbor, Me., respectively) were used to generate the conditionally immortal neuronal cell culture. Cells were isolated in a procedure modified from a previously established technique (Ronnett et al., 1991). Briefly, post-natal day 1-3 animals were decapitated and the heads were sectioned longitudinally. The olfactory epithelium and nasal septum were removed and placed in an Eppendorf tube containing 500 μl culture medium. The culture medium consisted of Minimum Essential Medium in which the L-valine has been replaced by D-valine (MDV). This was supplemented with 10% fetal bovine serum (FBS), 4 mM glutamine, kanamycin (100 μg.ml^−1), gentamicin (50 U.ml^−1) and amphotericin B (2.5 μg.ml^−1; all from Gibco BRL, Gaithersburg, Md.). The MDV medium was chosen because fibroblasts lack D-amino acid oxidase and the reduction of L-valine inhibits fibroblast survival and growth (Gilbert et al., 1986). Tissue was centrifuged at low speed for two minutes and then most of the medium was removed. The cell pellet was chopped briefly with a pair of fine-point scissors before being resuspended in supplemented cell culture medium. The resultant cell clumps and cell suspension were plated out onto 2- or 4-chamber glass slides (Nunc, Naperville, Ill.) or plastic dishes (Fisher Scientific, Pittsburgh, Pa.). To enhance ORN adhesion, all cell culture materials were pretreated with laminin (0.125 mg.ml^−1 in serum-free media, Collaborative Biomedical Products, Bedford, Mass.) for at least 12 hours, prior to plating. Cells were maintained in culture at 33° C. (the permissive temperature for the SV40 TAg) and, to stimulate transcription of the transgene, the culture medium was supplemented with murine γ-interferon (40 U.ml^−1, Genzyme, Cambridge, Mass.). Provisionally, in permissive conditions, the cell culture medium was supplemented with epidermal growth factor (EGF, 20 ng.ml^−1, Gibco BRL) and 2.5 S nerve growth factor (NGF, 10 ng.ml^−1, Gibco BRL) before thorough characterizations of their effects were made in later experiments.
To determine optimum conditions for cell survival, growth, differentiation or maturation, numerous combinations of culture conditions were tested. These included i) removal of the olfactory epithelium from newborn, 4-week-old, and sexually mature animals, ii) subjecting tissue to digestion by trypsin (Gibco BRL, 0.5 g.l^−1 for 60 minutes at 37° C.), iii) addition of growth factors to the culture medium and iv) the use of diverse culture media. […]

For L-carvone, in the experiment with 3NA12 cells, the “Cells responding to each odorant” value is recorded as around 1% and the “Cells responding to the odorant (increase in intracellular calcium concentration)” value worked out at 16 cells.
In the same order, the values of `CC(=O)c1ccccc1` [acetophenone] are around 1% and 15 cells.
With `CCCCCCC=O` [heptaldehyde], in the experiment on 3NA12 cells, the “Cells responding to each odorant” value is around 1% and the “Cells responding to the odorant (increase in intracellular calcium concentration)” value stood at 17 cells.
For the compound “Interferon: murine γ-interferon (Genzyme), stimulates transcription of the transgene”, in experiment [1] (33° C., permissive, seven days after plating, sigmoidal curve fit), the “EC50 (increase in number of NST+ cells)” value was determined as 0.4 U.ml^−1. The “Normalized # of NST+ Cells” value in experiment [1] (33° C., interferon 40 U.ml^−1, normalized to NST+ cells cultured in the absence of interferon) is 2.0 ± 0.2; in experiment [1] (37° C., interferon 40 U.ml^−1, normalized to absence of interferon) it was 1.9 ± 0.1. Further, the “Effect on the number of NST+ cells (in words)” value in experiment [1] is recorded as “significant increase”.
Turning to “EGF: epidermal growth factor (Gibco BRL)”, in experiment [1] (33° C., 10 ng.ml^−1, in the presence of 40 U.ml^−1 interferon, normalized to that point), the “Normalized # of NST+ Cells” value stood at 1.7 ± 0.2. The “Effect on the number of NST+ cells (in words)” value in experiment [1] is on record as “increased the number of NST+ cells; also recorded: greatest increase of NST+ cells”.

(Values after US20020048812A1, “Isolation and in vitro differentiation of conditionally immortalized murine olfactory receptor neurons” (priority 2000, published 2002).)
